# Data as given in ChEMBL document CHEMBL1147207 (Eur J Med Chem, 2007).
# Calls of active or inactive are those of the source. No cut-off for these calls is given here. Bridge positions count the residues as written; N and C are the ends. Square brackets hold non-standard residues; d marks the D form. Peptide text beside a SMILES is read from it. Orn = NCCC[C@H](N)C(=O)O; Aib = CC(C)(N)C(=O)O; Mpa = O=C(O)CCS
# Legend:
# [1] = biological target: Vasopressin V1a receptor (Rattus norvegicus) (UniProt P30560); experiment: Antagonist activity in phenoxybenzamine-treated rat by Pressor assay; conditions: read-out: pA2 (converted)
# [2] = biological target: T1, Oxytocin receptor (Rattus norvegicus) (UniProt P70536); experiment: Agonist activity in rat uterus by uterotonic assay; format: functional, tissue-based
# T1 sequence (whole entry): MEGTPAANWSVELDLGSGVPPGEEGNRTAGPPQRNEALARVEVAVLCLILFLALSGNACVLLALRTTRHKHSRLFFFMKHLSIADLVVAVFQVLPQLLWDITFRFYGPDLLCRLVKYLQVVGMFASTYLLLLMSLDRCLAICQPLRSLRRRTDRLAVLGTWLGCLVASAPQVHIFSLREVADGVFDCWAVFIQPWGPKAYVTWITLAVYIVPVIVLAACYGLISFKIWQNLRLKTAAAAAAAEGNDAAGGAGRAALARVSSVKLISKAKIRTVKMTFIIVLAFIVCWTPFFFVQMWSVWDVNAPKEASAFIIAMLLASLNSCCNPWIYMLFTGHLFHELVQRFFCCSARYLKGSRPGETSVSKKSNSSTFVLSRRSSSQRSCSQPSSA
# [3] = biological target: Vasopressin V1a receptor (Rattus norvegicus) (UniProt P30560); experiment: Agonist activity in phenoxybenzamine-treated rat up to 0.16 mg/kg by Pressor assay
# Oxytocin receptor [4] = biological target: T2, Oxytocin receptor (Homo sapiens, UniProt P30559); experiment: Displacement of [3H]OT from human OT receptor expressed in HEK cells; format: cell-based, HEK293
# T2 sequence (P30559 whole entry): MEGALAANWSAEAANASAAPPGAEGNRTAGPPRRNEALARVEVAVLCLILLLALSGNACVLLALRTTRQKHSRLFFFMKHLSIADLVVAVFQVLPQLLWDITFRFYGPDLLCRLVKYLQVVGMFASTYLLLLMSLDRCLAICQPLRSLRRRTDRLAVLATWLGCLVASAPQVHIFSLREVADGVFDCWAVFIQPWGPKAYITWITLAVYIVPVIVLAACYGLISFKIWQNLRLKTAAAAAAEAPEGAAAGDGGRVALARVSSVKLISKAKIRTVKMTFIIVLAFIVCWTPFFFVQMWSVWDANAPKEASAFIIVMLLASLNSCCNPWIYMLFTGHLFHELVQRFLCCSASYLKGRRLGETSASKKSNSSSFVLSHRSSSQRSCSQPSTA
# Oxytocin receptor [5] = biological target: T3, Oxytocin receptor (Rattus norvegicus, UniProt P70536); experiment: Antagonist activity in rat uterus by uterotonic assay; format: functional, tissue-based; conditions: read-out: pA2 (converted)
# T3 sequence (P70536 whole entry): T1 sequence (whole entry)
# Sequence of Vasopressin V1a receptor (Rattus norvegicus) (P30560 whole entry, looked up): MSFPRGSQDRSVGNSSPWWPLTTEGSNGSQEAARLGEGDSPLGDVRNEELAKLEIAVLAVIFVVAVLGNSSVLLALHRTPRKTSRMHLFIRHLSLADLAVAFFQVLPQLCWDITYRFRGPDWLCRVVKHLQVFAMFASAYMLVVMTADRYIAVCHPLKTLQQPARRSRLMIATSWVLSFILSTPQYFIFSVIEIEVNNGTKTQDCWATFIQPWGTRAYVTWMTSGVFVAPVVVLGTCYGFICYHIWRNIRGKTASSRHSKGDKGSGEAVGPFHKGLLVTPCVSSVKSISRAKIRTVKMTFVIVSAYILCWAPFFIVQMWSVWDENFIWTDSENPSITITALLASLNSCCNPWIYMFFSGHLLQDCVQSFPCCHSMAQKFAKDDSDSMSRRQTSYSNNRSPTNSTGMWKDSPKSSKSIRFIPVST
Structure (SMILES),Kb [1] [nM],Activity [2] [IU/mg],Activity [3],IC50 (Oxytocin receptor [4]) [nM],Kb (Oxytocin receptor [5]) [nM]
CC[C@H](C)[C@@H]1NC(=O)[C@H](Cc2ccc(O)cc2)NC(=O)[C@@H](N)CSSC[C@@H](C(=O)N2Cc3ccccc3C[C@@H]2C(=O)N[C@@H](CC(C)C)C(=O)NCC(N)=O)NC(=O)[C@H](CC(N)=O)NC(=O)[C@H](CCC(N)=O)NC1=O,> 1000,0,inactive,730,100
CC[C@H](C)[C@@H]1NC(=O)[C@H](Cc2ccc(O)cc2)NC(=O)CCSSC[C@@H](C(=O)N2Cc3ccccc3C[C@@H]2C(=O)N[C@@H](CC(C)C)C(=O)NCC(N)=O)NC(=O)[C@H](CC(N)=O)NC(=O)[C@H](CCC(N)=O)NC1=O,–,1,inactive,380,10
CCc1ccc(C[C@H]2NC(=O)CCSSC[C@@H](C(=O)NC(C)(C)C(=O)N[C@@H](CC(C)C)C(=O)NCC(N)=O)NC(=O)[C@H](CC(N)=O)NC(=O)[C@H](CCC(N)=O)NC(=O)[C@H]([C@@H](C)CC)NC2=O)cc1,316,0,inactive,–,5.01
CCOc1ccc(C[C@H]2NC(=O)CCSSC[C@@H](C(=O)N3CCC[C@H]3C(=O)N[C@@H](CCCN)C(=O)NCC(N)=O)NC(=O)[C@H](CC(N)=O)NC(=O)[C@H]([C@@H](C)O)NC(=O)[C@H]([C@@H](C)CC)NC2=O)cc1 [ATOSIBAN] ([Mpa][dY](Et)ITNCP[Orn]G-NH2; disulfide 1-6),–,0,–,–,5.13
CCOc1ccc(CC2NC(=O)CCSSC[C@@H](C(=O)N3Cc4ccccc4C[C@@H]3C(=O)N[C@@H](CC(C)C)C(=O)N3Cc4ccccc4C[C@@H]3C(N)=O)NC(=O)[C@H](CC(N)=O)NC(=O)[C@H](CCC(N)=O)NC(=O)[C@H]([C@@H](C)CC)NC2=O)cc1 (stereo in doubt),–,0,inactive,25,8.51
CC[C@H](C)[C@@H]1NC(=O)[C@H](Cc2ccc(O)cc2)NC(=O)[C@@H](N)CSSC[C@@H](C(=O)NC(C)(C)C(=O)N[C@@H](CC(C)C)C(=O)NCC(N)=O)NC(=O)[C@H](CC(N)=O)NC(=O)[C@H](CCC(N)=O)NC1=O (H-CYIQNC[Aib]LG-NH2; disulfide 1-6),–,1.7,inactive,75,–
CC[C@H](C)[C@@H]1NC(=O)[C@H](Cc2ccc(O)cc2)NC(=O)[C@@H](N)CSSC[C@@H](C(=O)N[C@@H](C(=O)N[C@@H](CC(C)C)C(=O)NCC(N)=O)C(C)(C)C)NC(=O)[C@H](CC(N)=O)NC(=O)[C@H](CCC(N)=O)NC1=O,–,1.8,inactive,–,–
CCOc1ccc(CC2NC(=O)CCSSC[C@@H](C(=O)N3Cc4ccccc4C[C@@H]3C(=O)N[C@@H](CC(C)C)C(=O)NCC(N)=O)NC(=O)[C@H](CC(N)=O)NC(=O)[C@H](CCC(N)=O)NC(=O)[C@H]([C@@H](C)CC)NC2=O)cc1 (stereo in doubt),> 1000,0,inactive,51,6.31
CC[C@H](C)[C@@H]1NC(=O)[C@H](Cc2ccc(O)cc2)NC(=O)[C@@H](N)CSSC[C@@H](C(=O)N2CCC[C@H]2C(=O)N[C@@H](CC(C)C)C(=O)NCC(N)=O)NC(=O)[C@H](CC(N)=O)NC(=O)[C@H](CCC(N)=O)NC1=O,–,546,–,–,–
CCc1ccc(C[C@H]2NC(=O)CCSSC[C@@H](C(=O)N3CCC[C@H]3C(=O)N[C@@H](CC(C)C)C(=O)NCC(N)=O)NC(=O)[C@H](CC(N)=O)NC(=O)[C@H](CCC(N)=O)NC(=O)[C@H]([C@@H](C)CC)NC2=O)cc1,151,–,–,–,–
CCOc1ccc(CC2NC(=O)CCSSC[C@@H](C(=O)NC(C)(C)C(=O)N[C@@H](CC(C)C)C(=O)N3CCCC[C@@H]3C(N)=O)NC(=O)[C@H](CC(N)=O)NC(=O)[C@H](CCC(N)=O)NC(=O)[C@H]([C@@H](C)CC)NC2=O)cc1 (stereo in doubt),–,0,inactive,–,–
CCOc1ccc(C[C@H]2NC(=O)CCSSC[C@@H](C(=O)NC(C)(C)C(=O)N[C@@H](CC(C)C)C(=O)N3Cc4ccccc4C[C@@H]3C(N)=O)NC(=O)[C@H](CC(N)=O)NC(=O)[C@H](CCC(N)=O)NC(=O)[C@H]([C@@H](C)CC)NC2=O)cc1,–,–,–,55,13.5
CC[C@H](C)[C@@H]1NC(=O)[C@H](Cc2ccc(O)cc2)NC(=O)[C@@H](N)CSSC[C@@H](C(=O)N[C@H](C(=O)N[C@@H](CC(C)C)C(=O)NCC(N)=O)C(C)(C)C)NC(=O)[C@H](CC(N)=O)NC(=O)[C@H](CCC(N)=O)NC1=O,–,–,–,1380,–
CC(C)C[C@H](NC(=O)[C@@H](NC(=O)[C@@H]1CSSC[C@H](N)C(=O)N[C@@H](Cc2ccc(O)cc2)C(=O)N[C@@H](C(C)(C)C)C(=O)N[C@@H](CCC(N)=O)C(=O)N[C@@H](CC(N)=O)C(=O)N1)C(C)(C)C)C(=O)NCC(N)=O,–,–,–,51700,741
CC[C@H](C)[C@@H]1NC(=O)[C@H](Cc2ccc(O)cc2)NC(=O)[C@@H](N)CSSC[C@@H](C(=O)N2CCCC[C@H]2C(=O)N[C@@H](CC(C)C)C(=O)NCC(N)=O)NC(=O)[C@H](CC(N)=O)NC(=O)[C@H](CCC(N)=O)NC1=O,–,79.8,inactive,7,–
CC[C@H](C)[C@@H]1NC(=O)[C@H](Cc2ccc(O)cc2)NC(=O)CCSSC[C@H](C(=O)N2CCC[C@H]2C(=O)N[C@@H](CC(C)C)C(=O)NCC(N)=O)NC(=O)[C@H](CC(N)=O)NC(=O)[C@H](CCC(N)=O)NC1=O,–,803,–,–,–
CCOc1ccc(CC2NC(=O)CCSSC[C@@H](C(=O)N[C@H](C(=O)N[C@@H](CC(C)C)C(=O)NCC(N)=O)C(C)(C)C)NC(=O)[C@H](CC(N)=O)NC(=O)[C@H](CCC(N)=O)NC(=O)[C@H]([C@@H](C)CC)NC2=O)cc1 (stereo in doubt),–,0,inactive,1000,11.7
CC(C)C[C@H](NC(=O)[C@H](NC(=O)[C@@H]1CSSC[C@H](N)C(=O)N[C@@H](Cc2ccc(O)cc2)C(=O)N[C@@H](C(C)(C)C)C(=O)N[C@@H](CCC(N)=O)C(=O)N[C@@H](CC(N)=O)C(=O)N1)C(C)(C)C)C(=O)NCC(N)=O,–,0,inactive,–,–
CCc1ccc(C[C@@H]2NC(=O)CCSSC[C@@H](C(=O)NC(C)(C)C(=O)N[C@@H](CC(C)C)C(=O)NCC(N)=O)NC(=O)[C@H](CC(N)=O)NC(=O)[C@H](CCC(N)=O)NC(=O)[C@H]([C@@H](C)CC)NC2=O)cc1,–,0,inactive,–,39.8
CCOc1ccc(CC2NC(=O)CCSSC[C@@H](C(=O)N[C@H](C(=O)N[C@@H](CC(C)C)C(=O)NCC(N)=O)C(C)(C)C)NC(=O)[C@H](CC(N)=O)NC(=O)[C@H](CCC(N)=O)NC(=O)[C@H](C(C)(C)C)NC2=O)cc1 (stereo in doubt),–,0,inactive,7850,355
CCOc1ccc(C[C@H]2NC(=O)[C@@H](N)CSSC[C@@H](C(=O)N3CCC[C@H]3C(=O)N[C@@H](CC(C)C)C(=O)NCC(N)=O)NC(=O)[C@H](CC(N)=O)NC(=O)[C@H](CCC(N)=O)NC(=O)[C@H]([C@@H](C)CC)NC2=O)cc1,–,0,–,–,43.7
CCOc1ccc(CC2NC(=O)CCSSC[C@@H](C(=O)N3Cc4ccccc4C[C@@H]3C(=O)N[C@@H](CC(C)C)C(=O)NC(C)(C)C(N)=O)NC(=O)[C@H](CC(N)=O)NC(=O)[C@H](CCC(N)=O)NC(=O)[C@H]([C@@H](C)CC)NC2=O)cc1 (stereo in doubt),–,0,inactive,80,4.9
CC[C@H](C)[C@@H]1NC(=O)[C@H]2Cc3ccccc3CN2C(=O)CCSSC[C@@H](C(=O)NC(C)(C)C(=O)N[C@@H](CC(C)C)C(=O)NCC(N)=O)NC(=O)[C@H](CC(N)=O)NC(=O)[C@H](CCC(N)=O)NC1=O,–,0,inactive,8500,123
CCOc1ccc(CC2NC(=O)CCSSC[C@@H](C(=O)NC(C)(C)C(=O)N[C@@H](CC(C)C)C(=O)NCC(N)=O)NC(=O)[C@H](CC(N)=O)NC(=O)[C@H](CCC(N)=O)NC(=O)[C@H]([C@@H](C)CC)NC2=O)cc1 (stereo in doubt),–,0,inactive,485,17.8
CCOc1ccc(CC2NC(=O)CCSSC[C@@H](C(=O)N3CCCC[C@H]3C(=O)N[C@@H](CC(C)C)C(=O)NCC(N)=O)NC(=O)[C@H](CC(N)=O)NC(=O)[C@H](CCC(N)=O)NC(=O)[C@H]([C@@H](C)CC)NC2=O)cc1 (stereo in doubt),–,0,inactive,40,12.6
